According to ChEMBL document CHEMBL1201862, “PubChem BioAssay data set” (2004):
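Following 48 hours of exposure in 96-well plates, responses at five concentrations were used to interpolate endpoints linearly. GI50 is the concentration that inhibits growth by half.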 Active and inactive are the calls of the source. Cut-off read from the data, not from the text of the source: active = GI50 up to about 1.1 µM and inactive = higher.

Tests used:
Test in all cases: DTP human tumour cell line panel, 48 h
CCRF-CEM = tested on: CCRF-CEM
EKVX = tested on: EKVX
HCT-116 = tested on: HCT-116
K562 = tested on: K562
LOX IMVI = tested on: LOX IMVI
M14 = tested on: M14
MOLT-4 = tested on: MOLT-4
NCI-H23 = tested on: NCI-H23
NCI-H460 = tested on: NCI-H460
NCI-H522 = tested on: NCI-H522
NCI/ADR-RES = tested on: NCI/ADR-RES
OVCAR-5 = tested on: OVCAR-5
OVCAR-8 = tested on: OVCAR-8
SF-295 = tested on: SF-295
SK-MEL-28 = tested on: SK-MEL-28
SK-MEL-2 = tested on: SK-MEL-2
SNB-19 = tested on: SNB-19
SW-620 = tested on: SW-620
U-251 = tested on: U-251
UACC-257 = tested on: UACC-257

Measured: GI50

CC(C)(C)CC(C)(C)c1ccc(O)c(C[N+](C)(C)[O-])c1
inactive: CCRF-CEM 41.8 µM | EKVX > 100 µM | HCT-116 98.6 µM | K562 74.8 µM | LOX IMVI > 100 µM | M14 > 100 µM | MOLT-4 53.6 µM | NCI-H23 > 100 µM | NCI-H460 > 100 µM | NCI-H522 53.5 µM | NCI/ADR-RES > 100 µM | OVCAR-5 > 100 µM | OVCAR-8 > 100 µM | SF-295 > 100 µM | SK-MEL-28 > 100 µM | SK-MEL-2 > 100 µM | SNB-19 > 100 µM | SW-620 > 100 µM | U-251 > 100 µM | UACC-257 > 100 µM
